Measured values reported in patent US7432398B2, “Inorganic acid salts of sibutramine” (CJ Corporation, priority 2005, dated 2008).
Structures can show the parent of a compound that is named as a salt.

What was measured:
[1] = Light stability test, fluorescent light at 25° C., ICH chamber (HPLC content); type: physicochemical
Description: A light stability test was performed as follows.

[2] = Stability on stringent 60° C. heat treatment (HPLC content); conditions: for chemical stability at high temperature: 60° C. heat treatment
Description: The inorganic acid salts of sibutramine, prepared in Examples 1, 2 and 3, and sibutramine hydrochloride monohydrate were exposed to a stringent 60° C. heat treatment.
HPLC was performed under the following conditions. Wavelength of UV detection: 225 nm
Column: octadecyl silica gel, C18 (4.6×150 mm, 5 μm)

[3] = Evaluation of hygroscopicity: water content (K.F.) after exposure to humid conditions; type: physicochemical; conditions: for change in water content under humid conditions: 75% and 90% RH, up to 1 week
Description: Then, the water content (K.F. water %) of the samples was measured.

[4] = Evaluation of solubility in solutions having various pH values
Excerpt: In Table 8, the solubility is expressed as milligrams (mg) of sibutramine dissolved per milliliter (ml) of solution.

[5] = fluorescent light, 25° C., 1 wk
[6] = fluorescent light, 25° C., 2 wks
[7] = fluorescent light, 25° C., 4 wks
[8] = 75% relative humidity, 25 °C, 1 week
[9] = 75% relative humidity, 25 °C, 3 days
[10] = 90% relative humidity, 25 °C, 1 week
[11] = 90% relative humidity, 25 °C, 3 days

CC(C)CC(N(C)C)C1(c2ccc(Cl)cc2)CCC1 (stereo not shown) [Sibutramine HCl hydrate, sibutramine hydrochloride monohydrate, reference compound]
content (HPLC) on exposure to fluorescent light ([1]; Initial): 1.000 | content (HPLC) on exposure to fluorescent light [1, 5]: 1.000 | content (HPLC) on exposure to fluorescent light [1, 6]: 0.999 | content (HPLC) on exposure to fluorescent light [1, 7]: 0.999 | light stability ([1]; fluorescent light, 25° C., content by HPLC): good light stability | chemical stability at high temperature [2]: good chemical stability | content (HPLC) on 60° C. heat treatment ([2]; 60° C., 1 wk): 1.000 | content (HPLC) on 60° C. heat treatment ([2]; 60° C., 2 wks): 0.999 | content (HPLC) on 60° C. heat treatment ([2]; 60° C., 4 wks): 0.999 | content (HPLC) on 60° C. heat treatment ([2]; Initial): 1.000 | change in water content under humid conditions [3]: almost no change in water content | water content (K.F. water %) [3, 8]: 5.5% | water content (K.F. water %) [3, 9]: 5.49% | water content (K.F. water %) [3, 10]: 5.49% | water content (K.F. water %) [3, 11]: 5.5% | water content (K.F. water %) ([3]; Initial): 5.5%

sibutramine phosphate monohydrate [Sibutramine phosphate hydrate]
content (HPLC) on exposure to fluorescent light ([1]; Initial): 1.000 | content (HPLC) on exposure to fluorescent light [1, 5]: 1.000 | content (HPLC) on exposure to fluorescent light [1, 6]: 0.999 | content (HPLC) on exposure to fluorescent light [1, 7]: 0.999 | chemical stability at high temperature [2]: good chemical stability | content (HPLC) on 60° C. heat treatment ([2]; 60° C., 1 wk): 1.000 | content (HPLC) on 60° C. heat treatment ([2]; 60° C., 2 wks): 0.999 | content (HPLC) on 60° C. heat treatment ([2]; 60° C., 4 wks): 1.000 | content (HPLC) on 60° C. heat treatment ([2]; Initial): 1.000 | change in water content under humid conditions [3]: almost no change in water content | water content (K.F. water %) [3, 8]: 4.25% | water content (K.F. water %) [3, 9]: 4.24% | water content (K.F. water %) [3, 10]: 4.26% | water content (K.F. water %) [3, 11]: 4.25% | water content (K.F. water %) ([3]; Initial): 4.25%

sibutramine hydrogen sulfate
content (HPLC) on exposure to fluorescent light ([1]; Initial): 1.000 | content (HPLC) on exposure to fluorescent light [1, 5]: 1.000 | content (HPLC) on exposure to fluorescent light [1, 6]: 1.000 | content (HPLC) on exposure to fluorescent light [1, 7]: 0.999 | chemical stability at high temperature [2]: good chemical stability | content (HPLC) on 60° C. heat treatment ([2]; 60° C., 1 wk): 1.000 | content (HPLC) on 60° C. heat treatment ([2]; 60° C., 2 wks): 0.999 | content (HPLC) on 60° C. heat treatment ([2]; 60° C., 4 wks): 0.999 | content (HPLC) on 60° C. heat treatment ([2]; Initial): 1.000 | change in water content under humid conditions [3]: almost no change in water content | water content (K.F. water %) [3, 8]: 0.01% | water content (K.F. water %) [3, 9]: 0.02% | water content (K.F. water %) [3, 10]: 0.03% | water content (K.F. water %) [3, 11]: 0.03% | water content (K.F. water %) ([3]; Initial): 0.02%

sibutramine bromate
solubility (mg of sibutramine dissolved per ml of solution) ([4]; DW (distilled water), dissolved at 37° C.): 12.78 mg/mL | solubility (mg of sibutramine dissolved per ml of solution) ([4]; pH 1.2, dissolved at 37° C.): 12.43 mg/mL | solubility (mg of sibutramine dissolved per ml of solution) ([4]; pH 4.0, dissolved at 37° C.): 3.64 mg/mL | solubility (mg of sibutramine dissolved per ml of solution) ([4]; pH 5.3, dissolved at 37° C.): 8.96 mg/mL | solubility (mg of sibutramine dissolved per ml of solution) ([4]; pH 6.8, dissolved at 37° C.): 11.08 mg/mL | solubility (mg of sibutramine dissolved per ml of solution) ([4]; pH 7.4, dissolved at 37° C.): 12.41 mg/mL | content (HPLC) on exposure to fluorescent light ([1]; Initial): 1.000 | content (HPLC) on exposure to fluorescent light [1, 5]: 1.000 | content (HPLC) on exposure to fluorescent light [1, 6]: 0.999 | content (HPLC) on exposure to fluorescent light [1, 7]: 0.999 | chemical stability at high temperature [2]: good chemical stability | content (HPLC) on 60° C. heat treatment ([2]; 60° C., 1 wk): 0.999 | content (HPLC) on 60° C. heat treatment ([2]; 60° C., 2 wks): 1.000 | content (HPLC) on 60° C. heat treatment ([2]; 60° C., 4 wks): 0.999 | content (HPLC) on 60° C. heat treatment ([2]; Initial): 1.000 | change in water content under humid conditions [3]: almost no change in water content | water content (K.F. water %) [3, 8]: 0.09% | water content (K.F. water %) [3, 9]: 0.09% | water content (K.F. water %) [3, 10]: 0.08% | water content (K.F. water %) [3, 11]: 0.08% | water content (K.F. water %) ([3]; Initial): 0.09%
